What all share (assay type): cell-based, human
One series deals with OK-CTL clone. The experiment in a line: IFN-γ production by OK-CTL clones cultured with COS-7 cells cotransfected with cDNA clone and HLA-A0207 cDNA. Further details: unit not given here. As to the method: Since CTL activated by recognizing the tumor antigen is a population of cells recognizing plural kinds of tumor antigens, the above-described OK-CTLp was subjected to cloning by limiting dilution culture (0.3, 0.5, 1, 2, and 4 cells/well) to obtain an OK-CTL clone (J. Immunol., 163:4994-5004, 1999. ) These clones are those having CTL activity selected by culturing them together with COS-7 cells into which 100 ng/well of any one of the above-described seven cDNA clones and 100 ng/well of HLA-A0207 cDNA were cotransfected, or with the tumor cells, in a cell ratio of 1:1, and measuring IFN-γ production. Specifically, three hundred CTL clones were obtained from the parent line OK-CTLp by a limiting dilution culture. Eighty CTL clones among them had HLA-A2-restricted tumor-specific CTL activity and expressed the phenotype of CD3^+ CD4^− CD8^+ and TCR αβ^+.

Series [1] concerns peripheral blood mononuclear cells derived from a cancer patient. The experiment in a line: CTL induction by peptide from autologous PBMC of cancer patient, IFN-γ production on recognition of target cells (Example 5). Particulars: PBMC stimulated with 10 μM peptide.
Series [2] shares this test system. Described as above. The following applies: for IFN-γ production from peripheral blood mononuclear cells in recognition of target cells: PBMC stimulated with 10 μM peptide. An excerpt: Among the peptides that were able to enhance IFN-γ production from the OK-CTLp or OK-CTL clone in Example 4, those from P1 to P19 were examined for their ability to induce CTL from peripheral blood mononuclear cells derived from a cancer patient. The method for inducing CTL by a peptide was according to the well-known method (J. Exp. Med., 187:277-288, 1998; Cancer Res., 59:4056-4063, 1999.) Specifically, autologous peripheral blood mononuclear cells (PBMC) derived from a cancer patient, from whom OK-CTLp was obtained, were incubated together with the peptide (10 μM.) The cells were re-stimulated at day 10 and 14 after the start of culturing, using autologous PBMCs as an antigen presenting cell (APC) which were pulsed with 10 μM of the same peptide for 2 h and exposed to irradiation (30 gray.) At day 21 after the start of culturing, the cells were collected to test for surface phenotype. In addition, the cells were examined for the recognition of various target cells, using IFN-γ production measured by ELISA when they were cultured together with the target cells as an indicator. As a target cells, SW620 cell, CA9-22 cell, and Panc-1 cell, which are the HLA-A2^+ tumor cells, were used.

Setting [3] is: CTL clone 0.5-1-D6, cDNA with HLA-A0207 cDNA in COS-7.
The mark [4] stands for this setting: CTL clone 0.5-1-D7, cDNA with HLA-A0207 cDNA in COS-7.
Where [5] appears, read: CTL clone 0.5-1-H2, cDNA with HLA-A0207 cDNA in COS-7.
[6] abbreviates: CTL clone 0.5-1-H12, cDNA with HLA-A0207 cDNA in COS-7.
Where [7] appears, read: CTL clone 0.5-2-A4, cDNA with HLA-A0207 cDNA in COS-7.
The mark [8] stands for this setting: CTL clone 1-2-D1, cDNA with HLA-A0207 cDNA in COS-7.
[9] abbreviates: CTL clone 1-2-D7, cDNA with HLA-A0207 cDNA in COS-7.
[10] abbreviates: CTL clone 1-2-D12, cDNA with HLA-A0207 cDNA in COS-7.
[11] abbreviates: CTL clone 2-1-F4, cDNA with HLA-A0207 cDNA in COS-7.
Where [12] appears, read: CTL clone 2-1-H12, cDNA with HLA-A0207 cDNA in COS-7.
[13] abbreviates: CTL clone 2-2-B4, cDNA with HLA-A0207 cDNA in COS-7.
Where [14] appears, read: CTL clone 2-2-H3, cDNA 100 ng/well with HLA-A0207 cDNA in COS-7.
Where [15] appears, read: CTL clone 4-1-H8, cDNA with HLA-A0207 cDNA in COS-7.
The mark [16] stands for this setting: CTL clone 4-2-A11, cDNA with HLA-A0207 cDNA in COS-7.
Where [17] appears, read: CTL clone 4-2-B3, cDNA with HLA-A0207 cDNA in COS-7.

From patent US7524930B2, “Tumor antigen” (Green Peptide Co., Ltd, priority 2003, dated 2009) come the findings set out here.

Turning to “clone 3: cDNA clone from Panc-1, 2243 bp [AB044549], high homology with WHSC2”, the “IFN-γ production by CTL clone” value in the series on OK-CTL clone (setting [3]) is on record as 0; in the series on OK-CTL clone (setting [4]), 0; in the series on OK-CTL clone (setting [5]), 0; with OK-CTL clone (setting [6]) it was 0; with OK-CTL clone (setting [7]), 0; in the series on OK-CTL clone (setting [8]) it was 22. Moreover, the “IFN-γ production by CTL clone” value with OK-CTL clone (setting [9]), in the series on OK-CTL clone (setting [10]), in the series with OK-CTL clone (setting [11]), with OK-CTL clone (setting [12]), in the series with OK-CTL clone (setting [13]) and in the series on OK-CTL clone (setting [14]) was 0 throughout. The “IFN-γ production by CTL clone” value is listed as 0 with OK-CTL clone (setting [15]), 100 in the series on OK-CTL clone (setting [16]) and 0 with OK-CTL clone (setting [17]).
With “TLLRKERGV (Designed peptide having an ability to activate HLA-A2 restricted Cytotoxic T lymphocytes) [Peptide P13, Gene 3 (WHSC2) 267-275]”, the “IFN-γ production from peripheral blood mononuclear cells in recognition of target cells” value in series [1] (target COLO320 (HLA-A24/24)) worked out at 0 pg/mL; in series [1] (target QG56 (HLA-A26/26)), 0 pg/mL; in series [1] (target RERF-LC-MS (HLA-A11/11)), 15 pg/mL; in series [2] (target CA9-22 (HLA-A0207/24)), 95 pg/mL; in series [2] (target Panc-1 (HLA-A0201/11)), 115 pg/mL; in series [2] (target SW620 (HLA-A0201/24)), 151 pg/mL. In addition, the “Recognition of tumor cells by PBMC stimulated in vitro with peptide (IFN-γ production)” value in series [2] (SW620, CA9-22 and Panc-1 HLA-A2+ tumor cells, result in words) is reported as “produced IFN-γ in a significant amount”.
Regarding “Clone 5: cDNA clone from Panc-1, 2404 bp [AB044546], homology with ppMAPkkk”, the “IFN-γ production by CTL clone” value is listed as 0 in the series with OK-CTL clone (setting [3]); 0 in the series on OK-CTL clone (setting [4]); 81 in the series on OK-CTL clone (setting [5]); 0 with OK-CTL clone (setting [6]); 0 in the series with OK-CTL clone (setting [7]); 0 in the series with OK-CTL clone (setting [8]). Besides, the “IFN-γ production by CTL clone” value with OK-CTL clone (setting [9]) was 0; in the series with OK-CTL clone (setting [10]), 0; with OK-CTL clone (setting [11]), over 1000; in the series with OK-CTL clone (setting [12]), 0; in the series on OK-CTL clone (setting [13]), 0; in the series on OK-CTL clone (setting [14]), 0. The “IFN-γ production by CTL clone” value in the series on OK-CTL clone (setting [15]), in the series with OK-CTL clone (setting [16]) and in the series on OK-CTL clone (setting [17]) was 0 each time.
On to “clone 1: cDNA clone from Panc-1, 1775 bp [AB044550], high homology with UBE2V”, for which the “IFN-γ production by CTL clone” value is listed as 19 with OK-CTL clone (setting [3]); 27 in the series on OK-CTL clone (setting [4]); 0 in the series with OK-CTL clone (setting [5]); 0 in the series on OK-CTL clone (setting [6]); 0 in the series with OK-CTL clone (setting [7]); 21 in the series on OK-CTL clone (setting [8]). Moreover, the “IFN-γ production by CTL clone” value in the series on OK-CTL clone (setting [9]) amounted to 0; with OK-CTL clone (setting [10]) it was 0; in the series on OK-CTL clone (setting [11]) it was 0; in the series on OK-CTL clone (setting [12]), 134; with OK-CTL clone (setting [13]), 0; with OK-CTL clone (setting [14]), 110. The “IFN-γ production by CTL clone” value in the series on OK-CTL clone (setting [15]), in the series with OK-CTL clone (setting [16]) and in the series on OK-CTL clone (setting [17]) was 0 throughout.
Turning to “clone 2: cDNA clone from Panc-1, 2097 bp [AB044547], high homology with HNRPL”, the “IFN-γ production by CTL clone” value with OK-CTL clone (setting [3]) is recorded as 0; in the series with OK-CTL clone (setting [4]) it was 34; in the series with OK-CTL clone (setting [5]) it was 0; in the series with OK-CTL clone (setting [6]), 0; with OK-CTL clone (setting [7]), 0; in the series on OK-CTL clone (setting [8]), 0. The “IFN-γ production by CTL clone” value with OK-CTL clone (setting [9]) is reported as 200; in the series on OK-CTL clone (setting [10]), over 1000; in the series on OK-CTL clone (setting [11]), 0; in the series with OK-CTL clone (setting [12]), 0; in the series with OK-CTL clone (setting [13]), 0; with OK-CTL clone (setting [14]), 0. The “IFN-γ production by CTL clone” value in the series with OK-CTL clone (setting [15]) is 133; in the series on OK-CTL clone (setting [16]) it was 0; in the series on OK-CTL clone (setting [17]), 0.
Regarding “clone 6: cDNA clone from Panc-1, 6707 bp [AB044545], homology with 2-5 OAS3”, the “IFN-γ production by CTL clone” value in the series on OK-CTL clone (setting [3]) came to 13; in the series on OK-CTL clone (setting [4]), 110; in the series on OK-CTL clone (setting [5]) it was 0; with OK-CTL clone (setting [6]), 0; with OK-CTL clone (setting [7]), 113; in the series with OK-CTL clone (setting [8]), 61. The “IFN-γ production by CTL clone” value is 0 in the series with OK-CTL clone (setting [9]); 0 in the series with OK-CTL clone (setting [10]); 0 in the series with OK-CTL clone (setting [11]); 0 in the series on OK-CTL clone (setting [12]); over 1000 in the series with OK-CTL clone (setting [13]); 0 in the series with OK-CTL clone (setting [14]). Further, the “IFN-γ production by CTL clone” value in the series with OK-CTL clone (setting [15]), with OK-CTL clone (setting [16]) and in the series on OK-CTL clone (setting [17]) was 0 each time.

B1: clone 4: cDNA clone from Panc-1, 831 bp [AB044548], high homology with EIF4EBP1 (nucleic acid, listed as Homo sapiens)
DNA: GCGGGAGGGCAGCGAGAGGTTCGCGGGTGCAGCGCACAGGAGACCATGTCCGGGGGCAGCAGCTGCAGCCAGACCCCAAGCCGGGCCATCCCCGCCACTCGCCGGGTGGTGCTCGGCGACGGCGTGCAGCTCCCGCCCGGGGACTACAGCACGACCCCCGGCGGCACGCTCTTCAGCACCACCCCGGGAGGTACCAGGATCATCTATGACCGGAAATTCCTGATGGAGTGTCGGAACTCACCTGTGACCAAAACACCCCCAAGGGATCTGCCCACCATTCCGGGGGTCACCAGCCCTTCCAGTGATGAGCCCCCCATGGAAGCCAGCCAGAGCCACCTGCGCAATAGCCCAGAAGATAAGCGGGCGGGCGGTGAAGAGTCACAGTTTGAGATGGACATTTAAAGCACCAGCCATCGTGTGGAGCACTACCAAGGGGCCCCTCAGGGCCTTCCTGGGAGGAGTCCCACCAGCCAGGCCTTATGAAAGTGATCATACTGGGCAGGCGTTGGCGTGGGGTCGGACACCCCAGCCCTTTCTCCCTCACTCAGGGCACCTGCCCCCTCCTCTTCGTGAACACCAGCAGATACCTCCTTGTGCCTCCACTGATGCAGGAGCTGCCACCCCAAGGGGAGTGACCCCTGCCAGCACACCCTGCAGCCAAGGGCCAGGAAGTGGACAAGAACGAACCCTTCCTTCCGAATGATCAGCAGTTCCAGCCCCTCGCTGCTGGGGGCGCAACCACCCCTTCCTTAGGTTGATGTGCTTGGGAAAGCTCCCTCCCCCTCCTTCCCCAAGAGAGGAAATAAAAGCCACCTTCGCCCTAGGGCCAAG
modifications: polyA_site (831)..(831)
B1: the “IFN-γ production by CTL clone” value in the series on OK-CTL clone (setting [3]) is on record as 118; in the series with OK-CTL clone (setting [4]), 0; in the series with OK-CTL clone (setting [5]), 0; in the series with OK-CTL clone (setting [6]), over 1000; with OK-CTL clone (setting [7]), 0; in the series with OK-CTL clone (setting [8]), 44. Also, the “IFN-γ production by CTL clone” value in the series with OK-CTL clone (setting [9]), in the series with OK-CTL clone (setting [10]), in the series with OK-CTL clone (setting [11]), with OK-CTL clone (setting [12]), in the series on OK-CTL clone (setting [13]) and in the series with OK-CTL clone (setting [14]) was 0 throughout. Moreover, the figures for the “IFN-γ production by CTL clone” value in the series with OK-CTL clone (setting [15]), in the series with OK-CTL clone (setting [16]) and in the series with OK-CTL clone (setting [17]) were 0, 0 and 95, respectively.
